Some test systems named below: CCRF-CEM leukemia; COLO 205 colon; HOP-62 NSCLC; NCI-H522 lung; OVCAR-3 ovarian; OVCAR-8 ovarian; SF-268 CNS; SF-539 CNS; SK-MEL-28 melanoma; SNB-19 CNS.
Common to all, as to assay: growth of human tumour cells (NCI), 48 h

Molecules are shown by their SMILES.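 96-well plates; 48 h exposure; 5 concentrations. Endpoints by linear interpolation between flanking doses. Not reached: highest tested concentration assigned. TGI is the concentration that stops growth completely.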 Bounds are passed on as bounds.

With `CCOC(=O)C1=C(C)N(C)C(=S)NC1c1cccc(O)c1` (stereo not given), the TGI is 72.1 µM in the assay on CCRF-CEM leukemia; more than 100 µM with COLO 205 colon; more than 100 µM in the assay on HOP-62 NSCLC; more than 100 µM with NCI-H522 lung; more than 100 µM in the assay with OVCAR-3 ovarian; more than 100 µM in the assay with OVCAR-8 ovarian. Besides, the TGI with SF-268 CNS, with SF-539 CNS, in the assay with SK-MEL-28 melanoma and in the assay with SNB-19 CNS was more than 100 µM each time.

Consider `CN(C)[C@@H]1C(=O)C(C(=O)NCNCCCC(=O)O)=C(O)[C@@]2(O)C(=O)C3=C(O)c4c(O)cccc4[C@@](C)(O)[C@H]3C[C@@H]12`, for which the TGI with CCRF-CEM leukemia, in the assay with COLO 205 colon, in the assay on HOP-62 NSCLC, in the assay with NCI-H522 lung, in the assay on OVCAR-3 ovarian and with OVCAR-8 ovarian was more than 100 µM each time. For the same molecule, the TGI in the assay with SF-268 CNS, with SF-539 CNS, with SK-MEL-28 melanoma and in the assay on SNB-19 CNS was more than 100 µM in each case.

(Values after PubChem BioAssay (NCI).)
